Data as given in patent publication US7547692B2, “Rifamycin analogs and uses thereof” (ActivBiotics Pharma, LLC, priority 2005, dated 2009).
Values after ≈ are worked out from the molar mass of the structure shown.

Key:
E. faecalis = test: MIC assay, E. faecalis; type: cell-based
S. aureus = test: MIC assay, S. aureus; type: cell-based
H. flu = test: MIC assay, H. flu; type: cell-based
S. pneumo. = test: MIC assay, S. pneumo.; type: cell-based
E. coli = test: MIC assay, E. coli; type: cell-based

Row | Compound | MIC E. faecalis (E. faecalis) [µg/mL] | MIC S. aureus (S. aureus) [µg/mL] | MIC H. flu (H. flu) [µg/mL] | MIC S. pneumo. (S. pneumo.) [µg/mL] | MIC E. coli (E. coli) [µg/mL] | melting point [°C]
1 | COC1C=COC2(C)Oc3c(C)c(O)c4c(=O)c(c5oc6cc(N7CC8CCC(C7)N8)cc(O)c6nc-5c4c3C2=O)NC(=O)C(C)=CC=CC(C)C(O)C(C)C(O)C(C)C(OC(C)=O)C1C (centres unmarked) [Compound 9] | 1 (≈ 1.1 µM) | 0.008 (≈ 0.00878 µM) | 2 (≈ 2.2 µM) | 0.00012 (≈ 0.000132 µM) | >8 | –
2 | CO[C@H]1/C=C/OC2(C)Oc3c(C)c(O)c4c(=O)c(c5oc6cc(N7CC8CCC7CN8)cc(O)c6nc-5c4c3C2=O)NC(=O)/C(C)=C\C=C\[C@H](C)[C@H](O)[C@@H](C)[C@@H](O)[C@@H](C)[C@H](OC(C)=O)[C@@H]1C (some centres unmarked) [Compound 4] | – | – | – | – | – | > 300
3 | COC1C=COC2(C)Oc3c(C)c(O)c4c(=O)c(c5oc6cc(N7CC8CCC(C7)N8)cc(O)c6nc-5c4c3C2=O)NC(=O)C(C)=CC=CC(C)C(O)C(C)C(O)C(C)C(O)C1C (centres unmarked) [Compound 10] | 0.12 (≈ 0.138 µM) | 0.015 (≈ 0.0173 µM) | 0.25 (≈ 0.288 µM) | 0.001 (≈ 0.00115 µM) | 4 (≈ 4.6 µM) | –
4 | CO[C@H]1/C=C/OC2(C)Oc3c(C)c(O)c4c(=O)c(c5oc6cc(N7CC8CC7CN8)cc(O)c6nc-5c4c3C2=O)NC(=O)/C(C)=C\C=C\[C@H](C)[C@H](O)[C@@H](C)[C@@H](O)[C@@H](C)[C@H](OC(C)=O)[C@@H]1C (some centres unmarked) [Compound 3] | – | – | – | – | – | > 330
5 | 3′-hydroxy-5′-(3-hydroxy-1-azetidinyl)benzoxazinorifamycin [Compound 1] | 0.12 | 0.002 | 0.12 | 0.00012 | 4 | –
